# System: SMAD1/5
# Experiment: Western blotting of SMAD1/5 phosphorylation in GiWi protocol
# Assay type: cell-based, human
# Conditions: insulin added on differentiation day 0; measured on day 3
# Excerpt: Using the cell lysis solution contained in the Minute Total Protein Extraction Kit for Animal Cultured Cells/Tissues (Invent Biotechnologies, Plymouth, MN, United States) with Protease Inhibitor Cocktail Set III (×100) (Fujifilm Wako Pure Chemical Corporation, Osaka, Japan) and Phosphatase Inhibitor Cocktail Solution II (×100) (Fujifilm Wako Pure Chemical Corporation), cells at day 3 of differentiation were lysed and proteins were extracted according to the manufacturer's instructions. Protein concentration was measured with a Pierce BCA Protein Assay Kit (Thermo Fisher Scientific), iMark microplate reader and Microplate Manager 6 software (Bio-Rad, Hercules, CA, USA). Fifty micrograms of protein combined with Laemmli sample buffer (Bio-Rad) were boiled at 95° C. for 5 minutes and then loaded onto 10% Mini-PROTEAN TGX Precast Gels (Bio-Rad). Proteins were transferred to nitrocellulose membranes and blocking was performed using Tris buffered saline with Tween20 with 5% nonfat dry milk for 1 hour at room temperature. […] Immunoblotted proteins were detected by ECL Prime Western blotting detection reagents and ImageQuant LAS4000 mini (GE Healthcare, Chicago, IL, USA).
substance,measurement,value
insulin,phosphorylation of SMAD1/5,suppressed

# Reference: patent US20240271096A1, “EFFICIENT DIFFERENTIATION OF SECOND HEART FIELD CARDIAC PROGENITOR CELLS AND RIGHT VENTRICLE CARDIOMYOCYTES FROM HUMAN PLURIPOTENT STEM CELLS” (Wisconsin Alumni Research Foundation, priority 2023, published 2024)
